Tested on: NOMO1
Test: cell viability relative to DMSO control; higher = less cytotoxic
Details: 48 h
Summary of the method: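 Viability was expressed as a per-plate percentage of DMSO wells, with cell-free wells as background. Leukemia cells (NOMO1 or SEM at 500 cells/well, P12-Ichikawa at 1000 cells/well) were adapted for at least four passages in each medium and seeded in 1536-well plates (5 μl). Library compounds in DMSO were pin-dosed over an 11-point threefold series from 47 μM to 0.79 nM, and CellTiter-Glo One luminescence was read after 48 h at 37°C.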

[1] = HPLM + 10% dialyzed FBS, 0.000781 µM
[2] = HPLM + 10% dialyzed FBS, 0.00234 µM
[3] = HPLM + 10% dialyzed FBS, 0.00702 µM
[4] = HPLM + 10% dialyzed FBS, 0.0211 µM
[5] = HPLM + 10% dialyzed FBS, 0.0632 µM
[6] = HPLM + 10% dialyzed FBS, 0.19 µM
[7] = HPLM + 10% dialyzed FBS, 0.569 µM
[8] = HPLM + 10% dialyzed FBS, 1.71 µM
[9] = HPLM + 10% dialyzed FBS, 5.12 µM
[10] = HPLM + 10% dialyzed FBS, 15.4 µM
[11] = HPLM + 10% dialyzed FBS, 46.1 µM
[12] = RPMI 5 mM glucose + 10% FBS, 0.000781 µM
[13] = RPMI 5 mM glucose + 10% FBS, 0.00234 µM
[14] = RPMI 5 mM glucose + 10% FBS, 0.00702 µM
[15] = RPMI 5 mM glucose + 10% FBS, 0.0211 µM
[16] = RPMI 5 mM glucose + 10% FBS, 0.0632 µM
[17] = RPMI 5 mM glucose + 10% FBS, 0.19 µM
[18] = RPMI 5 mM glucose + 10% FBS, 0.569 µM
[19] = RPMI 5 mM glucose + 10% FBS, 1.71 µM
[20] = RPMI 5 mM glucose + 10% FBS, 5.12 µM
[21] = RPMI 5 mM glucose + 10% FBS, 15.4 µM
[22] = RPMI 5 mM glucose + 10% FBS, 46.1 µM
[23] = RPMI 5 mM glucose + 10% dialyzed FBS, 0.000781 µM
[24] = RPMI 5 mM glucose + 10% dialyzed FBS, 0.00234 µM
[25] = RPMI 5 mM glucose + 10% dialyzed FBS, 0.00702 µM
[26] = RPMI 5 mM glucose + 10% dialyzed FBS, 0.0211 µM
[27] = RPMI 5 mM glucose + 10% dialyzed FBS, 0.0632 µM
[28] = RPMI 5 mM glucose + 10% dialyzed FBS, 0.19 µM
[29] = RPMI 5 mM glucose + 10% dialyzed FBS, 0.569 µM
[30] = RPMI 5 mM glucose + 10% dialyzed FBS, 1.71 µM
[31] = RPMI 5 mM glucose + 10% dialyzed FBS, 5.12 µM
[32] = RPMI 5 mM glucose + 10% dialyzed FBS, 15.4 µM
[33] = RPMI 5 mM glucose + 10% dialyzed FBS, 46.1 µM

Compound	cell viability [1] [%]	cell viability [2] [%]	cell viability [3] [%]	cell viability [4] [%]	cell viability [5] [%]	cell viability [6] [%]	cell viability [7] [%]	cell viability [8] [%]	cell viability [9] [%]	cell viability [10] [%]	cell viability [11] [%]	cell viability [12] [%]	cell viability [13] [%]	cell viability [14] [%]	cell viability [15] [%]	cell viability [16] [%]	cell viability [17] [%]	cell viability [18] [%]	cell viability [19] [%]	cell viability [20] [%]	cell viability [21] [%]	cell viability [22] [%]	cell viability [23] [%]	cell viability [24] [%]	cell viability [25] [%]	cell viability [26] [%]	cell viability [27] [%]	cell viability [28] [%]	cell viability [29] [%]	cell viability [30] [%]	cell viability [31] [%]	cell viability [32] [%]	cell viability [33] [%]
COC[C@@H](NC(C)=O)C(=O)NCc1ccccc1	112	119	117	132	116	118	114	117	107	105	86.7	95.9	110	97	102	118	109	119	104	104	112	64.8	106	117	116	114	125	115	125	124	131	118	69.5
Cc1cc(Nc2nc(N[C@@H](C)c3ncc(F)cn3)ncc2Cl)n[nH]1	89.6	95	113	124	113	113	109	63.3	19.9	19.5	28.5	114	126	117	124	114	123	125	116	98.4	19.5	15.7	108	119	105	127	127	120	126	135	112	38.3	23.8
COc1cc2c(Nc3ccc(Cl)c(Cl)c3F)ncnc2cc1OC[C@@H]1C[C@@H]2CN(C)C[C@@H]2C1	109	113	116	119	115	88.4	81.2	73	50.7	53.4	20.7	114	121	131	130	127	126	119	117	87.9	101	22.5	101	124	125	118	124	123	112	98.3	79.1	83.9	24.3
CC(=O)Nc1ccc([C@H](C)C(=O)Nc2ncc(C(C)C)s2)cc1	109	123	97.2	99	106	103	119	96.8	79.1	6.43	4.34	88.4	99.9	84.9	90.8	110	93.6	104	84.5	44.6	9.84	4.44	104	93.5	96.3	100	95.2	92	95.4	104	68.2	8.22	4.09
N[S+](=O)([O-])c1cc(Cl)c(Cl)c([S+](N)(=O)[O-])c1	112	92.2	107	105	106	104	116	98.3	86.5	82.6	94.3	112	95.7	96	101	104	93.7	99.3	95.3	100	89.3	87.5	97.9	99.1	110	97.5	108	95.7	98.5	92.6	91.7	100	85.8
OCc1ccc(-c2nn(Cc3ccccc3)c3ccccc23)o1	120	101	120	127	108	101	111	64.6	91.6	38.5	9	104	111	104	102	95.4	96.4	96.8	93.4	98.6	38	8.67	110	105	105	113	107	105	107	89.6	81.6	42.4	7.56
CC(=O)N1CCN(c2ccc(OC[C@H]3CO[C@](Cn4ccnc4)(c4ccc(Cl)cc4Cl)O3)cc2)CC1	126	120	123	118	117	102	129	103	98.8	96.3	80.4	113	111	121	114	114	107	119	106	97.9	98.2	93.6	111	100	120	127	127	113	103	113	126	110	89.3
O=C(CO)N1CCC(c2n[nH]c(-c3ccc(Cl)cc3)c2-c2ccncn2)CC1	117	121	134	129	117	129	120	117	123	34.6	78.2	111	115	118	113	121	111	113	115	119	57.3	96.3	113	123	116	105	123	111	109	119	113	41.6	92.8
Cn1c(Nc2ccc(C(F)(F)F)cc2)nc2cc(Oc3ccnc(-c4nc(C(F)(F)F)c[nH]4)c3)ccc21	125	125	120	125	144	145	140	129	114	100	45.7	124	123	118	134	130	141	124	149	122	119	29.5	121	129	121	127	140	130	125	125	104	106	26.8
C[C@@H](O)[C@@H]1[C@H]2[C@@H](C)\C(=C(/N2C1=O)C(=O)OCOC(=O)C(C)(C)C)SC3CN(C3)/C4=N/CCS4	93.2	93.2	103	111	110	113	105	102	68.2	60.8	38.4	92.3	102	113	111	101	112	101	110	109	116	104	87.8	106	103	119	111	126	115	120	100	84.5	77.7
CC(C)[C@@H](C[S+](=O)([O-])C(C)C)N1C(=O)[C@@](C)(CC(=O)O)C[C@H](c2cccc(Cl)c2)[C@H]1c1ccc(Cl)cc1	122	115	129	143	140	97.9	36.4	35.6	31.2	33.6	29.3	128	106	113	109	121	128	111	64.8	24.5	19.5	22.2	117	98.5	108	112	145	132	98.5	65.9	47.1	25.2	19.1
O=C1\C=C/C[C@@H]2[C@H]3CCCN4CCC[C@@H](CN12)[C@@H]34	116	110	117	106	125	107	101	107	121	89.2	104	90.2	94.3	97.1	90.9	95.4	93	93.4	85.9	91.8	93	93.4	106	107	103	116	94.1	104	90.3	106	105	98.9	86.6
CC1(C)C(=O)N(CCN2CCC(C(=O)c3ccc(F)cc3)CC2)c2ccccc21	117	115	120	141	151	138	162	128	119	129	88.7	120	124	120	131	141	142	128	133	117	122	82.1	116	120	134	136	134	134	148	132	120	113	84.1
CC(=O)N1CCN(c2ccc(OCc3nn(C)c(C)c3-c3cccc4c(CCCOc5cccc6ccccc56)c(C(=O)O)n(Cc5cccnc5)c34)cc2)CC1	107	130	119	117	138	128	126	85.2	32	23.9	22.7	110	125	120	124	130	129	127	67	22.8	19.6	16	118	125	130	131	136	139	129	123	24.9	19.5	21.2
CN1CCC(CC1)COC2=CN=C(N=C2)C3=CC(=CC=C3)CN4/N=C(\C=C/C4=O)C5=CC(=CC=C5)C#N	105	111	103	118	119	127	111	111	123	120	101	106	110	103	107	118	119	108	123	113	116	114	88	111	103	109	109	115	102	120	118	100	114
